Laboratory results taken from ChEMBL document CHEMBL1131395, “Novel antineoplastic agents with efficacy against multidrug resistant tumor cells” (1998).

Columns and labels:
Assay type in all cases: functional
MCF7 = assay: Compound was tested in vitro for growth inhibition of MCF-7 cells derived from human breast tumor.
MDA-N = assay: Compound was tested in vitro for growth inhibition of MDA-N cells derived from human breast tumor
P388 = assay: Compound was tested in vitro for growth inhibition of murine leukemic P388 cells; conditions: Mus musculus
SK-MEL-5 = assay: Compound was tested in vitro for growth inhibition of SK-MEL-5 cells derived from human melanoma.
SF-295 = assay: Compound was tested in vitro for growth inhibition of SF 295 cells derived from CNS tumor; conditions: Homo sapiens
CAKI-1 = assay: Compound was tested in vitro for growth inhibition of CAKI-1 cells derived from human renal tumor
COLO 205 = assay: Compound was tested in vitro for growth inhibition of COLO 205 cells derived from human colon tumor
P388/ADR = assay: Compound was tested in vitro for growth inhibition of murine leukemic P388/ADR cells that exhibit MDR phenotype.; conditions: Mus musculus
NCI-H522 = assay: Compound was tested in vitro for growth inhibition of […] cells derived from human lung tumor
NCI/ADR-RES = assay: Compound was tested in vitro for growth inhibition of MCF-7/ADR cells that exhibit MDR phenotype.; conditions: Homo sapiens
CCRF-CEM = assay: Compound was tested in vitro for growth inhibition of CCRF-CEM cells derived from human leukemia.
PC-3 = assay: Compound was tested in vitro for growth inhibition of PC 3 cells derived from human prostate tumor
OVCAR-8 = assay: Compound was tested in vitro for growth inhibition of OVCAR-8 cells derived from human ovarian tumor

| GI50 (MCF7) | GI50 (P388) | GI50 (SK-MEL-5) | GI50 (COLO 205) | GI50 (P388/ADR) | GI50 (CCRF-CEM) | GI50 (PC-3) | GI50 (OVCAR-8) | Compound | GI50 (MDA-N) | GI50 (SF-295) | GI50 (CAKI-1) | GI50 (NCI-H522) | GI50 (NCI/ADR-RES) |
| --- | --- | --- | --- | --- | --- | --- | --- | --- | --- | --- | --- | --- | --- |
| 120 nM | 37 nM | 151 nM | 220 nM | 110 nM | 68 nM | 468 nM | 437 nM | Cc1ccc(NS(=O)(=O)c2c(F)c(F)c(F)c(F)c2F)cc1C | 123 nM | 479 nM | 479 nM | 49 nM | 320 nM |
| – | – | 1000 nM | 1300 nM | – | 600 nM | 3200 nM | 5000 nM | COc1ccc(NS(=O)(=O)c2ccc(F)c(F)c2F)cc1 | 1400 nM | 2700 nM | 5500 nM | 371 nM | – |
| 29 nM | 12 nM | < 10 nM | < 10 nM | 34 nM | < 10 nM | < 10 nM | 50 nM | COc1ccc(NS(=O)(=O)c2c(F)c(F)c(F)c(F)c2F)cc1 | 41 nM | 11 nM | 56 nM | < 10 nM | 58 nM |
| 34 nM | 27 nM | 183 nM | 220 nM | 36 nM | 320 nM | 525 nM | 372 nM | CN(C)c1ccc(NS(=O)(=O)c2c(F)c(F)c(F)c(F)c2F)cc1 | 30 nM | 501 nM | 417 nM | 58 nM | 96 nM |
| 28 nM | 12 nM | 13 nM | 14 nM | 32 nM | < 10 nM | 35 nM | 50 nM | O=S(=O)(Nc1ccc2[nH]ccc2c1)c1c(F)c(F)c(F)c(F)c1F | 21 nM | 40 nM | 72 nM | < 10 nM | 115 nM |
| 430 nM | 140 nM | 20 nM | 19 nM | 340 nM | 51 nM | 62 nM | 91 nM | O=S(=O)(Nc1ccc2c(c1)OCCO2)c1c(F)c(F)c(F)c(F)c1F | 40 nM | 54 nM | 63 nM | 26 nM | 410 nM |
| 1.1 nM | 16 nM | – | – | > 15000 nM | – | – | – | CC(=O)O[C@H]1C(=O)[C@@]2(C)[C@H]([C@H](OC(=O)c3ccccc3)[C@]3(O)C[C@H](OC(=O)[C@H](O)[C@@H](NC(=O)c4ccccc4)c4ccccc4)C(C)=C1C3(C)C)[C@]1(OC(C)=O)CO[C@@H]1C[C@@H]2O [PACLITAXEL] | – | – | – | – | > 15000 nM |
| 2.3 nM | 4.1 nM | – | – | 470 nM | – | – | – | CC[C@]1(O)C[C@@H]2CN(CCc3c([nH]c4ccccc34)[C@@](C(=O)OC)(c3cc4c(cc3OC)N(C)[C@H]3[C@@](O)(C(=O)OC)[C@H](OC(C)=O)[C@]5(CC)C=CCN6CC[C@]43[C@@H]65)C2)C1 [VINBLASTINE] | – | – | – | – | 350 nM |
